From patent US9890147B2 (BAYER PHARMA AKTIENGESELLSCHAFT, priority 2012, dated 2018) come the findings set out here.

One assay concerns the target T1, BRD4 (BD1) (Homo sapiens, UniProt O60885).
T1 construct: with relatively long constructs also being possible, preferably amino acids 44-168; made in house; host or cells: E. coli
The assay is described as follows: Binding assay BRD4/acetylated peptide H4 (TR-FRET protein-protein interaction assay). The method in brief: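 Displacement of biotin-Ac-H4 peptide from His6-tagged BRD4(BD1), final usually 10 nM, read as Eu-streptavidin to anti-His-XL665 TR-FRET (665/620 nm). Compounds tested at 11 doses up to 20 μM in duplicate, pH 7.5 HEPES, 22 °C then 4 °C incubation; IC50 by 4-parameter regression.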
Background: Time-resolved FRET reads energy transfer from a long-lived donor to a nearby acceptor.

The subject of another assay is MOLM-13 cells. The assay is described as follows: Cell proliferation assay (alamarBlue), MOLM-13. Format: cell-based. To be noted: Homo sapiens, 96 hours incubation, inhibition of cell proliferation. The method in brief:
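IC50 = concentration giving 50% growth inhibition relative to buffer-treated cells, after subtracting baseline fluorescence taken before dosing. Compound applied at 1E-5 to 1E-8 M for 96 h at 37 °C in RPMI1640 with 10% FCS; alamarBlue signal at 530/590 nm.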

For the next assay, the system named is MOLP-8 cells. As to the kind of experiment: Cell proliferation assay (alamarBlue), MOLP-8. Format: cell-based. The following applies: Homo sapiens, 120 hours incubation, inhibition of cell proliferation. As to the method: (§1) In accordance with the invention, the capability of the substances to inhibit cell proliferation was determined Cell viability was determined using the alamarBlue® reagent (Invitrogen) in a Victor X3 Multilabel Reader (Perkin Elmer). The excitation wavelength was 530 nm and the emission wavelenth […].
The MOLP-8 cells (DSMZ, ACC 569) were sown at a concentration of 4000 cells/well in 100 μl growth medium (RPMI1640, 20% FCS) on 96-well microtitre plates.
(§2) After an overnight incubation at 37° C., the fluorescence values (CI values) were determined. The plates were then treated with various substance dilutions (1E-5 M, 3E-6 M, 1E-6M, 3E-7 M, 1E-7 M, 3E-8 M, 1E-8 M) and incubated at 37° C. for 72 (MV4-11-, LOX-IMVI cells), 96 (MOLM-13-, B16F10-, MDA-MB-431-, Caov-3 cells), 120 (MOLP-8-, KMS-12-PE cells) or 168 (LAPC-4 cells) hours. The fluorescence values (CO values) were then determined. For the data analysis, the CI values were subtracted from the CO values and the results were compared between cells treated with different dilutions of the substance or with buffer solution only. These were used to calculate the IC 50 values (substance concentration required for 50% inhibition of cell proliferation).
Background: The colour change of resazurin is a common sign of viable cells or microbes.

Another assay deals with MV4-11 cells. As to the kind of experiment: Cell proliferation assay (alamarBlue), MV4-11. The following applies: Homo sapiens, 72 hours incubation, inhibition of cell proliferation. Type of assay: cell-based. As to the method: as §1
The MV4-11 cells (ATCC, CRL 9591) were sown at a concentration of 5000 cells/well in 100 μl growth medium (RPMI1640, 10% FCS) on 96-well microtitre plates.
as §2

The test system of another assay is LOX-IMVI cells. As to the kind of experiment: Cell proliferation assay (alamarBlue), LOX-IMVI. Type of assay: cell-based. To be noted: Homo sapiens, 72 hours incubation, inhibition of cell proliferation. The procedure:
as §1
The LOX-IMVI cells (NCI-60) were sown at a concentration of 1000 cells/well in 100 μl growth medium (RPMI1640, 10% FCS) on 96-well microtitre plates.
as §2

In the next assay the test system is KMS-12-PE cells. As to the kind of experiment: Cell proliferation assay (alamarBlue), KMS-12-PE. Format: cell-based. The following applies: Homo sapiens, 120 hours incubation, inhibition of cell proliferation. The procedure: as §1
The KMS-12-PE cells (DSMZ, ACC 606) were sown at a concentration of 4000 cells/well in 100 μl growth medium (RPMI1640, 20% FCS) on 96-well microtitre plates.
as §2

Regarding `CNC(=O)N1N=C(c2ccc(Cl)cc2)c2cc(OCc3cccc(C)n3)ccc2CC1C` (racemic) [Example 167], the figures for the IC50 on BRD4 (BD1), in the assay on MOLM-13 cells and in the assay on MOLP-8 cells were 310 nM, 3240 nM and 2950 nM, respectively.
In the case of `CNC(=O)N1N=C(c2ccc(-c3c(C)noc3C)cc2)c2cc(O)ccc2CC1C` (racemic) [Example 168, (±)-1-[4-(3,5-Dimethylisoxazol-4-yl)phenyl]-8-hydroxy-N,4-dimethyl-4,5-dihydro-3H-2,3-benzodiazepine-3-carboxamide], the IC50 (in general, the concentration that inhibits the measured activity by half) at BRD4 (BD1) is 110 nM; with MOLM-13 cells, 390 nM; in the assay with MV4-11 cells it was 220 nM.
For the compound `CNC(=O)N1N=C(c2ccc(Cl)cc2)c2cc(-n3nc(C)cc3C)ccc2CC1C` (racemic) [Example 174, (±)-1-(4-Chlorophenyl)-8-(3,5-dimethyl-1H-pyrazol-1-yl)-N,4-dimethyl-4,5-dihydro-3H-2,3-benzodiazepine-3-carboxamide], the figures for the IC50 on BRD4 (BD1), in the assay on MOLM-13 cells and in the assay with MOLP-8 cells were 250 nM, 2340 nM and 2030 nM, respectively.
In the same order, the values of `CNC(=O)N1N=C(c2ccc(-c3sc(C)nc3C)cc2)c2cc(OC)c(OC)cc2C[C@H]1C` (single isomer, unassigned) [Example 46.2] are 1160 nM, above 10000 nM and 9470 nM.
Consider `CNC(=O)N1N=C(c2ccc(N3CCOCC3)cc2)c2cc(OC)c(OC)cc2C[C@@H]1C` [Example 7.2, (4S)-7,8-dimethoxy-N,4-dimethyl-1-[4-(morpholin-4-yl)phenyl]-4,5-dihydro-3H-2,3-benzodiazepine-3-carboxamide], for which the IC50 at BRD4 (BD1) is 30 nM; with MOLM-13 cells it was 100 nM; with MV4-11 cells, 60 nM; in the assay with LOX-IMVI cells, 190 nM; in the assay with MOLP-8 cells, 50 nM; in the assay with KMS-12-PE cells, 50 nM.
Take `CNC(=O)N1N=C(c2ccc(N3CC(F)C3)cc2)c2cc(OC)c(OC)cc2C[C@@H]1C` [Example 129.2, (4S)-1-[4-(3-fluoroazetidin-1-yl)phenyl]-7,8-dimethoxy-N,4-dimethyl-4,5-dihydro-3H-2,3-benzodiazepine-3-carboxamide]: the IC50 turned out to be 20 nM at BRD4 (BD1), 150 nM in the assay with MOLM-13 cells and 80 nM in the assay with MOLP-8 cells.
As for `CNC(=O)N1N=C(c2ccc(-c3c(C)nn(C)c3C)cc2)c2cc(OC(F)(F)F)ccc2C[C@@H]1C` [Example 249.1, (4S)-N,4-dimethyl-8-(trifluoromethoxy)-1-[4-(1,3,5-trimethyl-1H-pyrazol-4-yl)phenyl]-4,5-dihydro-3H-2,3-benzodiazepine-3-carboxamide], the results for the half-maximal inhibitory concentration (IC50) at BRD4 (BD1) and in the assay on MOLM-13 cells were 20 nM and 60 nM, respectively.
Regarding `CNC(=O)N1N=C(c2ccc(N3CCN(C)CC3)c(Br)c2)c2cc(OC)c(OC)cc2C[C@@H]1C` [Example 253, (4S)-1-[3-Bromo-4-(4-methylpiperazin-1-yl)phenyl]-7,8-dimethoxy-N,4-dimethyl-4,5-dihydro-3H-2,3-benzodiazepine-3-carboxamide], the IC50 at BRD4 (BD1) is 40 nM; in the assay on MOLM-13 cells, 60 nM.
Consider `CNC(=O)N1N=C(c2ccc(N3CCN(C)CC3)c(C#N)c2)c2cc(OC)c(OC)cc2C[C@@H]1C` [Example 254, (4S)-1-[3-Cyano-4-(4-methylpiperazin-1-yl)phenyl]-7,8-dimethoxy-N,4-dimethyl-4,5-dihydro-3H-2,3-benzodiazepine-3-carboxamide], for which the 50% inhibitory concentration (IC50) on BRD4 (BD1) was found to be 110 nM; with MOLM-13 cells, 170 nM.
